# Source: patent publication US20250270615A1, “METHOD FOR DETECTING THE MICROBIAL GROWTH POTENTIAL OF AN ANTISCALANT COMPOSITION IN NATURAL SEAWATER” (ACWA POWER Company, priority 2024, published 2025)
# Test system: autochthonous seawater bacteria
# Test: Bacterial growth potential of antiscalants in natural seawater with an autochthonous bacterial population (flow cytometry)
# Format: cell-based
# Details: 50 mg L^−1 antiscalant, Red Sea water, 30° C. dark, 8 days, one-tail Wilcoxon signed-rank test
# Procedure: The natural seawater was serially filtered to remove microbial cells and to set a desired low initial cell concentration for the growth potential assay within approximately 10,000 to 20,000 bacterial cells mL^−1. This seawater was used in the method of the present disclosure.
# Natural seawater (1.0 L) was serially filtered through pre-cleaned 0.45 μm pore size and 0.2 μm pore size polyethersulfone filters (Satorius Stedium Minisart). The filters were replaced every 100 mL.
# 30 mL of the resulting filtered seawater with a bacterial cell concentration of 21,000±1200 cells mL^−1 was added to AOC-free 40 mL borosilicate glass vials with screw caps containing PTFE-lined silicone septa.
# Antiscalants from the 8 stock solutions (3 g L^−1) were added to 8 vials to obtain 8 mixtures comprising the antiscalant at a final concentration of 50 mg L^−1.
# Vials with no antiscalant addition were included as a control.
# The vials were incubated at 30° C. in the dark and bacterial growth was determined by measuring cell concentrations over time using flow cytometry. Each growth potential test was conducted in three independent biological replicates.
# Flow cytometry (FCM) was used to measure the bacterial cell concentration in the vials at an interval of 24 h.
# To this end, 5.0 μL SYBR Green I (Invitrogen, 100× diluted in 10 mM Tris buffer pH=8.1) were added to a final 0.5 mL vial samples in amber microfuge tubes followed by mixing and incubation for 10 min in the dark at 35° C.
# Stained cells were measured with a BD Accuri C6 instrument in fixed 50 μL volume mode with a sample flow rate of 35 μL min^−1. The blue 488 nm laser (50 mW) was used to collect the green fluorescence at FL1=533 30 nm, the red fluorescence FL3>670 nm, as well as intrinsic cell parameters were given by the side scattered (SSH) and forward scattered (FSH) light signals. Electronic gating was used to separate positive microbial stained signals from instrument, and water background noise as described by Prest et al. (2013).
# The instrument performance was verified using Spherotech 8-peak validation beads. […]
row,SMILES,bacterial growth compared to reference without antiscalant
1,"O=P(O)(O)CN(CP(=O)(O)O)CP(=O)(O)O [ATMP, amino trimethylene phosphonic acid]",promoted bacterial growth
2,"O=P(O)(O)CN(CCCCCCN(CP(=O)(O)O)CP(=O)(O)O)CP(=O)(O)O [HDTMP, hexamethylenediamine-tetra(methylenephosphonic acid)]",promoted bacterial growth
3,"CC(O)(P(=O)(O)O)P(=O)(O)O [HEDP, 1-hydroxyethylidene-(1,1-diphosphonic acid)]",did not promote bacterial growth
